Structures can show the parent of a compound that is named as a salt.
Assays:
[1] = Cell cytotoxicity test: protection of HT22 cells against glutamate toxicity (EC50) and cytotoxicity of the compounds (CC50), MTT; type: cell-based, mouse; details: mouse, HT22 cells (mouse hippocampal neuron)
Description: (§1) HT22 cells (mouse hippocampal neuron, Salk Institute and KRIBB) were plated in a 96-well plate at a density of 3×10^3 cells/well for 16 hrs before treatment. The cells were treated with five millimolar glutamate and various concentrations of the inventive compounds and incubated for 24 hrs in a growth media (DMEM with 10% FBS and 1% penicillin streptomycin). Then, the cells were treated with 3-(4,5-dimethylthiazol-2-yl)-2,5-diphenyltetrazolium bromide (MTT, Sigma®) for 4 hrs and absorbance of each well was measured with a plate reader at a wavelength of 450 nm. [Da-Qing, et. al., Anti-oxidant and anti-inflammatory activities of macelignan in murine hippocampal cell line and primary culture of rat microglia cells, BBRC, 2005, 331, 1264-1269].
(§2) In Table 1, EC50 is neuroprotective effect against glutamate toxicity and CC50 is cytotoxicity of the compounds. The EC50 values were statistically analyzed using Prizm® (GraphPad Software Inc., San Diego, Calif., USA).

[2] = test system: HT22 cells (mouse hippocampal neuron); experiment: as above; type: cell-based; details: Mus musculus, HT-22, five millimolar glutamate, 24 hrs, read-out: EC50 (neuroprotective effect against glutamate toxicity)
Description: as §1, §2

## Oc1cc2c(cc1Nc1ccccc1-c1ccccc1)C[C@@H]1NCC[C@]23CCCC[C@H]13 [Example 60, (+)-2-(Biphenyl-2-ylamino)-3-hydroxymorphinan TFA salt]
[1]
  CC50 at 24 h: 1.4 µM
[2]
  EC50: 0.019 µM

## Oc1cc2c(cc1-c1ccc(C(F)(F)F)cc1)C[C@@H]1NCC[C@]23CCCC[C@H]13 [Example 79, (+)-3-Hydroxy-2-(4-trifluorophenyl)morphinan TFA salt]
[1]
  CC50 at 24 h: 11 µM
[2]
  EC50: 6.1 µM

## CS(=O)(=O)Nc1ccccc1Nc1cc2c(cc1O)[C@]13CCCC[C@@H]1[C@H](C2)NCC3 [Example 110, (+)-3-Hydroxy-2-(2-(methanesulfonamido)phenylamino)morphinan TFA salt]
[1]
  CC50 at 24 h: 7.55 µM
[2]
  EC50: 0.00453 µM

## Oc1cc2c(cc1Nc1c(O)cccc1O)C[C@@H]1NCC[C@]23CCCC[C@H]13 [Example 47, (+)-2-(2,6-Dihydroxyphenylamino)-3-hydroxymorphinan TFA salt]
[1]
  CC50 at 24 h: 9 µM
[2]
  EC50: 0.275 µM

## Oc1cc2c(cc1Nc1ccc3ncccc3c1)C[C@@H]1NCC[C@]23CCCC[C@H]13 [Example 68, TFA salt]
[1]
  CC50 at 24 h: 8.5 µM
[2]
  EC50: 1.72 µM

## CN(C)c1cc2c(cc1O)[C@]13CCCC[C@@H]1[C@H](C2)NCC3 [Example 98, (+)-2-(Dimethylamino)-3-hydroxymorphinan TFA salt]
[1]
  CC50 at 24 h: > 100 µM
[2]
  EC50: 5.69 µM

## COc1ccc(Nc2cc3c(cc2O)[C@]24CCCC[C@@H]2[C@H](C3)NCC4)c(OC)c1 [Example 40, (+)-2-(2,4-Dimethoxyphenylamino)-3-hydroxymorphinan TFA salt]
[1]
  CC50 at 24 h: 7.2 µM
[2]
  EC50: 0.033 µM

## Oc1cc2c(cc1Nc1cccc3cnccc13)C[C@@H]1NCC[C@]23CCCC[C@H]13 [Example 67, TFA salt]
[1]
  CC50 at 24 h: 12.5 µM
[2]
  EC50: 0.107 µM

## NC(=O)c1ccccc1Nc1cc2c(cc1O)[C@]13CCCC[C@@H]1[C@H](C2)NCC3 [Example 61, (+)-2-(2-Carbamoylphenylamino)-3-hydroxymorphinan TFA salt]
[1]
  CC50 at 24 h: 50 µM
[2]
  EC50: 1.79 µM

## CCCN(CCC)c1cc2c(cc1O)[C@]13CCCC[C@@H]1[C@H](C2)NCC3 [Example 96, (+)-2-(Dipropylamino)-3-hydroxymorphinan TFA salt]
[1]
  CC50 at 24 h: 3.49 µM
[2]
  EC50: 0.178 µM

## Oc1cc2c(cc1Nc1ccccc1Cc1ccccc1)C[C@@H]1NCC[C@]23CCCC[C@H]13 [Example 62, (+)-2-(2-Benzylphenylamino)-3-hydroxymorphinan TFA salt]
[1]
  CC50 at 24 h: 1.6 µM
[2]
  EC50: 0.0524 µM

## CNc1ccccc1Nc1cc2c(cc1O)[C@]13CCCC[C@@H]1[C@H](C2)NCC3 [Example 127, (+)-3-Hydroxy-2-(2-(methylamino)phenylamino)morphinan TFA salt]
[1]
  CC50 at 24 h: 1.3 µM
[2]
  EC50: 0.0621 µM

## Oc1ccccc1Nc1cc2c(cc1O)[C@]13CCCC[C@@H]1[C@H](C2)NCC3 [Example 43, (+)-3-Hydroxy-2-(2-hydroxyphenylamino)morphinan TFA salt]
[1]
  CC50 at 24 h: 10.4 µM
[2]
  EC50: 0.00271 µM

## Oc1ccc2c(c1Br)[C@]13CCCC[C@@H]1[C@H](C2)NCC3 [Example 7, (+)-4-Bromo-3-hydroxymorphinan TFA salt]
[2]
  EC50: 12.5 µM

## CC(C)(C)C(=O)Nc1ccccc1Nc1cc2c(cc1O)[C@]13CCCC[C@@H]1[C@H](C2)NCC3 [Example 115, (+)-3-Hydroxy-2-(2-(pivalamido)phenylamino)morphinan TFA salt]
[1]
  CC50 at 24 h: 53.6 µM
[2]
  EC50: 2.5 µM

## CCN(CC)c1ccccc1Nc1cc2c(cc1O)[C@]13CCCC[C@@H]1[C@H](C2)NCC3 [Example 129, (+)-2-(2-(Diethylamino)phenylamino)-3-hydroxymorphinan TFA salt]
[1]
  CC50 at 24 h: 1.6 µM
[2]
  EC50: 0.0439 µM

## Oc1cc2c(cc1O)[C@]13CCCC[C@@H]1[C@H](C2)NCC3 [Example 10, (+)-2,3-Dihydroxymorphinan TFA salt]
[2]
  EC50: 12.1 µM

## Oc1c(Br)cc2c(c1Br)[C@]13CCCC[C@@H]1[C@H](C2)NCC3 [Example 6, (+)-2,4-Dibromo-3-hydroxymorphinan TFA salt]
[2]
  EC50: 9.57 µM

## CCC(C)Nc1cc2c(cc1O)[C@]13CCCC[C@@H]1[C@H](C2)NCC3 (stereo partly drawn) [Example 95, (+)-2-(sec-Butylamino)-3-hydroxymorphinan TFA salt]
[1]
  CC50 at 24 h: 66.4 µM
[2]
  EC50: 0.131 µM

## CCCCOC(=O)Nc1ccccc1Nc1cc2c(cc1O)[C@]13CCCC[C@@H]1[C@H](C2)NCC3 [Example 118, (+)-2-(2-(Butoxycarbonylamino)phenylamino)-3-hydroxymorphinan TFA salt]
[2]
  EC50: 0.891 µM

## Oc1c(Cl)cc2c(c1Cl)[C@]13CCCC[C@@H]1[C@H](C2)NCC3 [Example 4, (+)-2,4-Dichloro-3-hydroxymorphinan TFA salt]
[2]
  EC50: 10.9 µM

## Oc1cc2c(cc1Nc1cccc(Cl)c1O)C[C@@H]1NCC[C@]23CCCC[C@H]13 [Example 55, (+)-2-(3-Chloro-2-hydroxyphenylamino)-3-hydroxymorphinan TFA salt]
[1]
  CC50 at 24 h: 9.2 µM
[2]
  EC50: 0.101 µM

## Oc1cc2c(cc1Nc1ccc(C(F)(F)F)cc1)C[C@@H]1NCC[C@]23CCCC[C@H]13 [Example 35, (+)-3-Hydroxy-2-(4-(trifluoromethyl)phenylamino)morphinan TFA salt]
[1]
  CC50 at 24 h: 52.8 µM
[2]
  EC50: 2.59 µM

## Oc1cc2c(cc1Nc1cccc(F)c1O)C[C@@H]1NCC[C@]23CCCC[C@H]13 [Example 57, (+)-2-(3-Fluoro-2-hydroxyphenylamino)-3-hydroxymorphinan TFA salt]
[1]
  CC50 at 24 h: 5.5 µM
[2]
  EC50: 0.199 µM

## CNc1cc2c(cc1O)[C@]13CCCC[C@@H]1[C@H](C2)NCC3 [Example 18, (+)-3-Hydroxy-2-(methylamino)morphinan TFA salt]
[1]
  CC50 at 24 h: 59 µM
[2]
  EC50: 0.193 µM

## CN(c1cc2c(cc1O)[C@]13CCCC[C@@H]1[C@H](C2)NCC3)c1ccccc1NS(C)(=O)=O [Example 125, (+)-3-Hydroxy-2-(2-(methanesulfonamido)phenyl(methyl)amino)morphinan TFA salt]
[1]
  CC50 at 24 h: 45.9 µM
[2]
  EC50: 10.9 µM

## Oc1cc2c(cc1Nc1cc(Cl)ccc1Cl)C[C@@H]1NCC[C@]23CCCC[C@H]13 [Example 64, (+)-2-(2,5-Dichlorophenylamino)-3-hydroxymorphinan TFA salt]
[1]
  CC50 at 24 h: 1.9 µM
[2]
  EC50: 0.464 µM

## Oc1cc2c(cc1Nc1ccccc1C(F)(F)F)C[C@@H]1NCC[C@]23CCCC[C@H]13 [Example 52, (+)-3-Hydroxy-2-(2-(trifluoromethyl)phenylamino)morphinan TFA salt]
[1]
  CC50 at 24 h: 1.5 µM
[2]
  EC50: 0.0249 µM

## Oc1c(F)cc2c(c1Cl)[C@]13CCCC[C@@H]1[C@H](C2)NCC3 [Example 2, (+)-4-Chloro-2-fluoro-3-hydroxymorphinan TFA salt]
[2]
  EC50: 50 µM

## Oc1c(F)cc2c(c1Br)[C@]13CCCC[C@@H]1[C@H](C2)NCC3 [Example 3, (+)-4-Bromo-2-fluoro-3-hydroxymorphinan TFA salt]
[2]
  EC50: 19.8 µM

## Oc1ccc2c(c1Cl)[C@]13CCCC[C@@H]1[C@H](C2)NCC3 [Example 5, (+)-4-Chloro-3-hydroxymorphinan TFA salt]
[2]
  EC50: 9.33 µM

## Oc1c(Cl)cc2c(c1Br)[C@]13CCCC[C@@H]1[C@H](C2)NCC3 [Example 8, (+)-4-Bromo-2-chloro-3-hydroxymorphinan TFA salt]
[2]
  EC50: 20.2 µM

## Oc1cc2c(cc1F)C[C@@H]1NCC[C@]23CCCC[C@H]13 [Example 1, (+)-2-Fluoro-3-hydroxymorphinan TFA salt]
[2]
  EC50: 9.68 µM

## Oc1cc2c(cc1-c1ccccc1)C[C@@H]1NCC[C@]23CCCC[C@H]13 [Example 80, (+)-3-Hydroxy-2-phenylmorphinan TFA salt]
[2]
  EC50: 9.1 µM

## O=C(O)c1cc2c(cc1O)[C@]13CCCC[C@@H]1[C@H](C2)NCC3 [Example 14, ((+)-3-Hydroxymorphinan)-2-carboxylic acid TFA salt]
[2]
  EC50: 86.3 µM

## COc1cc2c(cc1O)[C@]13CCCC[C@@H]1[C@H](C2)NCC3 [Example 12, (+)-3-Hydroxy-2-methoxymorphinan TFA salt]
[2]
  EC50: 24.4 µM

## Oc1cc2c(cc1-c1ccc(Cl)cc1)C[C@@H]1NCC[C@]23CCCC[C@H]13 [Example 74, (+)-2-(4-Chlorophenol)-3-hydroxymorphinan TFA salt]
[2]
  EC50: 0.796 µM

## OCc1cc2c(cc1O)[C@]13CCCC[C@@H]1[C@H](C2)NCC3 [Example 16, (+)-3-Hydroxy-2-(hydroxymethyl)morphinan TFA salt]
[2]
  EC50: > 100 µM

## Cc1cc2c(cc1O)[C@]13CCCC[C@@H]1[C@H](C2)NCC3 [Example 85, (+)-3-Hydroxy-2-methylmorphinan TFA salt]
[2]
  EC50: 8.39 µM

## Oc1cc2c(cc1I)C[C@@H]1NCC[C@]23CCCC[C@H]13 [Example 9, (+)-3-Hydroxy-2-iodomorphinan TFA salt]
[2]
  EC50: 10.2 µM

## O=Cc1cc2c(cc1O)[C@]13CCCC[C@@H]1[C@H](C2)NCC3 [Example 13, (+)-2-Formyl-3-hydroxymorphinan TFA salt]
[2]
  EC50: 11.6 µM

## CCc1cc2c(cc1O)[C@]13CCCC[C@@H]1[C@H](C2)NCC3 [Example 84, (+)-2-Ethyl-3-hydroxymorphinan TFA salt]
[2]
  EC50: 6.71 µM

## CCCCNC(=S)Nc1ccccc1Nc1cc2c(cc1O)[C@]13CCCC[C@@H]1[C@H](C2)NCC3 [Example 123, (+)-2-(2-(Butylthioureido)phenylamino)-3-hydroxymorphinan TFA salt]
[2]
  EC50: 0.459 µM
